This is an account of results in patent publication US20260217687A1 (NeoPhore Limited, priority 2023, published 2026).

The structures appear in SMILES notation.

The assay concerns the target T1, recombinant N-terminal MLH1 (residues 15-340) (Homo sapiens, UniProt P40692).
T1 construct: recombinant N-terminal MLH1 (residues 15-340)
T1 sequence (P40692 15-340): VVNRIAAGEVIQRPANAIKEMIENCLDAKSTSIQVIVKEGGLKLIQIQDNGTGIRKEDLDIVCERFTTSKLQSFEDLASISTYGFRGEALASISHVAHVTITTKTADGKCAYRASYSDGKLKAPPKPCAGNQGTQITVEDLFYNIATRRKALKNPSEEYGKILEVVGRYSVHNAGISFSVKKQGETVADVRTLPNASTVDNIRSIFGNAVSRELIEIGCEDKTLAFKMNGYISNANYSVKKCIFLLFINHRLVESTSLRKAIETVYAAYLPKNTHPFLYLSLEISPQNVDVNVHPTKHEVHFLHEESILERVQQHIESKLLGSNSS
Description: Fluorescence Polarisation Assay for MLH1. The conditions noted are these: 100 nM N-terminal MLH1, 5 nM probe compound. The format is binding. The procedure: Fluorescence Polarisation Assay for MLH1
Test compounds, as 10 mM DMSO stocks, were dispensed into a 384-well Low Flange Black Flat Bottom Polystyrene Non-binding Surface plate (Corning®, item number 3575) using a Labcyte Echo acoustic liquid handler. […] 20 μL of a 2× solution (200 nM) of recombinant N-terminal MLH1 (residues 15-340) in assay buffer (25 mM HEPES, pH 7.5, 250 mM NaCl, 10 mM MgCl2, 0.01% Triton X-100, 5 mM Dithiothreitol) was added to all wells in columns 1-23 and 20 μL assay buffer was added to all wells in column 24 using an E1-ClipTip pipette (ThermoFisher). Plates were centrifuged for 1 minute at 250 xg and were incubated at room temperature for 30 minutes prior to the addition of 20 μL of 2×(10 nM) of 5-((5-(4-((2-(2-(Benzyloxy)-4,6-dihydroxybenzoyl)isoindolin-5-yl)methyl)piperazin-1-yl)pentyl)carbamoyl)-2-(6-(dimethylamino)-3-(dimethyliminio)-3H-xanthen-9-yl)benzoate (referred to hereinafter as “probe compound”) in assay buffer (prepared from a 1 mM DMSO stock) with an E1-ClipTip pipette (ThermoFisher). The final concentration of N-terminal MLH1 was 100 nM and the final concentration of the probe compound was 5 nM. Compound plates were centrifuged for 1 minute at 250 xg for 1 minute and immediately read on a PheraStar FSX (fitted with 384-well aperture spoon and 590 675 675 FP optic module). The gain and focus were adjusted before each plate was read so that the polarisation of a no enzyme control (column 24) was equal to 35 mP. Data were normalised against the no inhibitor controls (column 23) and no enzyme controls (column 24).

With `O=C(c1c(O)cc(C(F)F)cc1OCc1ccccn1)N1CCc2cccc(N[C@H]3CCOC3)c2C1` [Example 4.10, (S)-(4-(Difluoromethyl)-2-hydroxy-6-(pyridin-2-ylmethoxy)phenyl)(8-((tetrahydrofuran-3-yl)amino)-3,4-dihydroisoquinolin-2(1H)-yl)methanone], the IC50 lay within 100 to 1000 nM.

Regarding `COc1ccc(COc2cc(C(F)F)cc(O)c2C(=O)N2CCc3cccc(N[C@H]4CCOC4)c3C2)cc1` [Example 4.11, (S)-(4-(Difluoromethyl)-2-hydroxy-6-((4-methoxybenzyl)oxy)phenyl)(8-((tetrahydrofuran-3-yl)amino)-3,4-dihydroisoquinolin-2(1H)-yl)methanone], the IC50 is 100 to 1000 nM.

`CN1CC[C@H](Nc2cccc3c2CN(C(=O)c2c(O)cc(C(F)F)cc2OCc2ccccc2)C3)C1=O` [Example 4.12, (S)-3-((2-(2-(Benzyloxy)-4-(difluoromethyl)-6-hydroxybenzoyl)isoindolin-4-yl)amino)-1-methylpyrrolidin-2-one]: the IC50 is 100 to 1000 nM.

Regarding `CN1CC[C@H](Nc2cccc3c2CN(C(=O)c2c(O)cc(C(F)F)cc2OCc2ccccc2)CC3)C1=O` [Example 4.13, (S)-3-((2-(2-(benzyloxy)-4-(difluoromethyl)-6-hydroxybenzoyl)-1,2,3,4-tetrahydroisoquinolin-8-yl)amino)-1-methylpyrrolidin-2-one], the IC50 is 100 to 1000 nM.

For the compound `CN1CC[C@@H](Nc2cccc3c2CN(C(=O)c2c(O)cc(C(F)F)cc2OCc2ccccc2)C3)C1=O` [Example 4.14, (R)-3-((2-(2-(Benzyloxy)-4-(difluoromethyl)-6-hydroxybenzoyl)isoindolin-4-yl)amino)-1-methylpyrrolidin-2-one], the IC50 is 100 to 1000 nM.

Turning to `CN1CC[C@@H](Nc2cccc3c2CN(C(=O)c2c(O)cc(C(F)F)cc2OCc2ccccc2)CC3)C1=O` [Example 4.15, (R)-3-((2-(2-(Benzyloxy)-4-(difluoromethyl)-6-hydroxybenzoyl)-1,2,3,4-tetrahydroisoquinolin-8-yl)amino)-1-methylpyrrolidin-2-one], the IC50 fell in the range of 100 to 1000 nM.

As to `O=C1OCCC1Nc1cccc2c1CN(C(=O)c1c(O)cc(C(F)F)cc1OCc1ccccc1)C2` (stereo not shown) [Example 4.16, 3-((2-(2-(Benzyloxy)-4-(difluoromethyl)-6-hydroxybenzoyl)isoindolin-4-yl)amino)dihydrofuran-2(3H)-one], the IC50 was 100 to 1000 nM.

As for `O=C1OCCC1Nc1cccc2c1CN(C(=O)c1c(O)cc(C(F)F)cc1OCc1ccccc1)CC2` (stereo not shown) [Example 4.17, 3-((2-(2-(Benzyloxy)-4-(difluoromethyl)-6-hydroxybenzoyl)-1,2,3,4-tetrahydroisoquinolin-8-yl)amino) dihydrofuran-2(3H)-one], the IC50 was in the range of 100 to 1000 nM.

As to `COc1cc2c(c(N[C@H]3CCOC3)c1)CN(C(=O)c1c(O)cc(C(F)F)cc1OCc1ccccc1)C2` [Example 4.18, (S)-(2-(Benzyloxy)-4-(difluoromethyl)-6-hydroxyphenyl)(6-methoxy-4-((tetrahydrofuran-3-yl)amino)isoindolin-2-yl)methanone], the IC50 lay in the range of 100 to 1000 nM.

In the case of `O=C(c1c(O)cc(C(F)F)cc1OCc1ccccc1)N1Cc2cc(Cn3ccnc3)cc(N[C@H]3CCOC3)c2C1` [Example 4.19, (S)-(6-((1H-Imidazol-1-yl)methyl)-4-((tetrahydrofuran-3-yl)amino)isoindolin-2-yl) (2-(benzyloxy)-4-(difluoromethyl)-6-hydroxyphenyl)methanone], the IC50 was in the range of 100 to 1000 nM.

With `COc1cc2c(c(N[C@H]3CCOC3)c1)CN(C(=O)c1c(O)cc(C(F)F)cc1OCc1ccccc1)CC2` [Example 4.20, (S)-(2-(Benzyloxy)-4-(difluoromethyl)-6-hydroxyphenyl)(6-methoxy-8-((tetrahydrofuran-3-yl)amino)-3,4-dihydroisoquinolin-2(1H)-yl)methanone], the IC50 is 100 to 1000 nM.

Turning to `CN(C)Cc1cc2c(c(N[C@H]3CCOC3)c1)CN(C(=O)c1c(O)cc(C(F)F)cc1OCc1ccccc1)CC2` [Example 4.21, (S)-(2-(Benzyloxy)-4-(difluoromethyl)-6-hydroxyphenyl)(6-((dimethylamino)methyl)-8-((tetrahydrofuran-3-yl)amino)-3,4-dihydroisoquinolin-2(1H)-yl)methanone], the IC50 is below 100 nM.

For the compound `O=C(c1c(O)cc(C(F)F)cc1OCc1ccccc1)N1CCc2cc(Cn3ccnc3)cc(N[C@H]3CCOC3)c2C1` [Example 4.22, (S)-(6-((1H-Imidazol-1-yl)methyl)-8-((tetrahydrofuran-3-yl)amino)-3,4-dihydroisoquinolin-2(1H)-yl)(2-(benzyloxy)-4-(difluoromethyl)-6-hydroxyphenyl)methanone], the IC50 is below 100 nM.

On to `COc1ccc2c(c1N[C@H]1CCOC1)CN(C(=O)c1c(O)cc(C(F)F)cc1OCc1ccccc1)CC2` [Example 4.23, (S)-(2-(Benzyloxy)-4-(difluoromethyl)-6-hydroxyphenyl)(7-methoxy-8-((tetrahydrofuran-3-yl)amino)-3,4-dihydroisoquinolin-2(1H)-yl)methanone], for which the IC50 is 1000 to 10000 nM.

With `Cn1cncc1-c1cc2c(c(N[C@H]3CCOC3)c1)CN(C(=O)c1c(O)cc(C(F)F)cc1OCc1ccccc1)C2` [Example 4.24, (S)-(2-(Benzyloxy)-4-(difluoromethyl)-6-hydroxyphenyl)(6-(1-methyl-1H-imidazol-5-yl)-4-((tetrahydrofuran-3-yl)amino)isoindolin-2-yl)methanone], the IC50 lay within 100 to 1000 nM.

Regarding `Cn1cnc(-c2cc3c(c(N[C@H]4CCOC4)c2)CN(C(=O)c2c(O)cc(C(F)F)cc2OCc2ccccc2)C3)c1` [Example 4.25, (S)-(2-(Benzyloxy)-4-(difluoromethyl)-6-hydroxyphenyl)(6-(1-methyl-1H-imidazol-4-yl)-4-((tetrahydrofuran-3-yl)amino)isoindolin-2-yl)methanone], the IC50 was 100 to 1000 nM.

On to `Cn1cncc1-c1cc2c(c(N[C@H]3CCOC3)c1)CN(C(=O)c1c(O)cc(C(F)F)cc1OCc1ccccc1)CC2` [Example 4.26, (S)-(2-(Benzyloxy)-4-(difluoromethyl)-6-hydroxyphenyl) (6-(1-methyl-1H-imidazol-5-yl)-8-((tetrahydrofuran-3-yl)amino)-3,4-dihydroisoquinolin-2(1H)-yl)methanone], for which the IC50 was 100 to 1000 nM.

With `Cn1cnc(-c2cc3c(c(N[C@H]4CCOC4)c2)CN(C(=O)c2c(O)cc(C(F)F)cc2OCc2ccccc2)CC3)c1` [Example 4.27, (S)-(2-(Benzyloxy)-4-(difluoromethyl)-6-hydroxyphenyl) (6-(1-methyl-1H-imidazol-4-yl)-8-((tetrahydrofuran-3-yl)amino)-3,4-dihydroisoquinolin-2(1H)-yl)methanone], the IC50 was in the range of 100 to 1000 nM.

Consider `COCCNc1cccc2c1CN(C(=O)c1c(O)cc(C(F)F)cc1OCc1ccccc1)C2` [Example 4.28, (2-(Benzyloxy)-4-(difluoromethyl)-6-hydroxyphenyl) (4-((2-methoxyethyl)amino)isoindolin-2-yl)methanone], for which the IC50 was in the range of 100 to 1000 nM.

With `CN(C)C(=O)CNc1cccc2c1CN(C(=O)c1c(O)cc(C(F)F)cc1OCc1ccccc1)C2` [Example 4.29, 2-((2-(2-(Benzyloxy)-4-(difluoromethyl)-6-hydroxybenzoyl)isoindolin-4-yl)amino)-N, N-dimethylacetamide], the IC50 lay in the range of 100 to 1000 nM.

In the case of `CN1CCN(Cc2ccc3c(c2)CN(C(=O)c2c(O)cc(C(F)F)cc2OCc2ccccc2)C3)CC1` [Example 4.30, (2-(Benzyloxy)-4-(difluoromethyl)-6-hydroxyphenyl) (5-((4-methylpiperazin-1-yl)methyl)isoindolin-2-yl) methanone], the IC50 was 100 to 1000 nM.

As to `CN(C)CCOc1ccc2c(c1)CN(C(=O)c1c(O)cc(C(F)F)cc1OCc1ccccc1)C2` [Example 4.31, (2-(Benzyloxy)-4-(difluoromethyl)-6-hydroxyphenyl)(5-(2-(dimethylamino)ethoxy)isoindolin-2-yl)methanone], the IC50 is 100 to 1000 nM.

On to `CN1CC(Nc2cccc3c2CN(C(=O)c2c(O)cc(C(F)F)cc2OCc2ccccc2)C3)C1` [Example 4.33], for which the IC50 was in the range of 100 to 1000 nM.

Consider `CNc1cccc2c1CN(C(=O)c1c(O)cc(C(F)F)cc1OCc1ccccc1)C2` [Example 4.34, (2-(Benzyloxy)-4-(difluoromethyl)-6-hydroxyphenyl) (4-(methylamino)isoindolin-2-yl) methanone], for which the IC50 was 1000 to 10000 nM.

`O=C(c1c(O)cc(C(F)F)cc1OCc1ccccc1)N1CCc2ccccc2C1` [Example 4.35, (2-(Benzyloxy)-4-(difluoromethyl)-6-hydroxyphenyl)(3,4-dihydroisoquinolin-2(1H)-yl)methanone]: the IC50 fell in the range of 1000 to 10000 nM.
